ChEMBL document CHEMBL5584343, “Cerastecin Inhibition of the Lipooligosaccharide Transporter MsbA to Combat Acinetobacter baumannii: From Screening Impurity to In Vivo Efficacy” (J Med Chem, 2024)
In brackets after ≈: the same amount, converted by molar mass. Activity calls are given as the source filed them. The rule behind the calls is not given here.

How the values were obtained:
Acinetobacter baumannii [1] = test: Antibacterial activity against Acinetobacter baumannii ATCC19606 assessed as bacterial growth inhibition incubated for 18 to 20 hrs by microbroth dilution method; format: functional; details: time 18-20 hrs
[2] = Inhibition of wildtype Acinetobacter baumannii MsbA preincubated for 30 mins followed by ATP addition and measured after 1 hrs by Transcreener ADP2 F1 assay
[3] = (§1) Cytotoxicity against GFP fused human MT4 cells cultured under serum free condition for 24 hrs by CellTiter-Glo assay; format: toxicity, cell-based; details: GFP fused MT4 cells
Acinetobacter baumannii [4] = test: Antibacterial activity against Acinetobacter baumannii ATCC19606 incubated for 18 to 20 hrs in presence of 10% human serum by microbroth dilution method; format: functional; details: time 18-20 hrs
Acinetobacter baumannii [5] = test: Selectivity ratio of MIC95 for antibacterial activity against Acinetobacter baumannii ATCC19606 in the presence of 10% human serum to MIC95 for antibacterial activity against Acinetobacter baumannii ATCC19606; format: functional
Acinetobacter baumannii [6] = test: Antibacterial activity against Acinetobacter baumannii ATCC19606 incubated for 18 to 20 hrs in presence of 1% of human serum by microbroth dilution method; format: functional; details: time 18-20 hrs
[7] = AUC (0 to infinity) in male C57BL/6 mouse at 300 mg/kg, sc administered once in a day and measured after 24 hrs by LC-MS/MS analysis; format: ADME, organism-based; details: male, C57BL/6, mouse, in vivo
[8] = Cmax in male C57BL/6 mouse at 300 mg/kg, sc administered 3 times a day with 3 hrs interval and measured after 24 hrs by LC-MS/MS analysis; format: ADME, organism-based; details: in vivo
[9] = AUC (0 to infinity) in male C57BL/6 mouse at 300 mg/kg, sc administered 3 times a day with 3 hrs interval and measured after 24 hrs by LC-MS/MS analysis; format: ADME, organism-based; details: male, C57BL/6, mouse, in vivo
Acinetobacter baumannii [10] = test: Selectivity ratio of MIC95 for antibacterial activity against Acinetobacter baumannii ATCC19606 in the presence of 1% human serum to MIC95 for antibacterial activity against Acinetobacter baumannii ATCC19606; format: functional
[11] = Cmax in male C57BL/6 mouse at 300 mg/kg, sc administered once in a day and measured after 24 hrs by LC-MS/MS analysis; format: ADME, organism-based; details: in vivo
MT4 = test: as §1; format: toxicity, cell-based; details: mt4, 24 h, time 24 hrs
[12] = Plasma protein binding in C57BL/6 mouse at 1000 to 100000 ng/ml by equilibrium dialysis based LC-MS/MS analysis; format: ADME, cell-free; details: dose 1000-100000 ng/ml, read-out: PPB (converted)
Acinetobacter baumannii [13] = test: Antibacterial activity against Acinetobacter baumannii CLB21655 infected in female DBA mouse blood stream infection model assessed as reduction in bacterial burden in spleen at 200 mg/kg, sc pre-infected with bacteria for 0.5 hrs followed by once daily compound administration and measured after 8 hrs (reference value: 5.85 log10CFU/g); format: functional
[14] = Lipophilicity, logD of compound at pH 7 by HPLC analysis; format: physicochemical; details: buffer
Acinetobacter baumannii [15] = test: Antibacterial activity against Acinetobacter baumannii CLB21655 assessed as bacterial growth inhibition incubated for 18 to 20 hrs by microbroth dilution method; format: functional; details: time 18-20 hrs
Acinetobacter baumannii [16] = test: Antibacterial activity against Acinetobacter baumannii CLB21655 incubated for 18 to 20 hrs in presence of 10% mouse serum by microbroth dilution method; format: functional; details: time 18-20 hrs
Acinetobacter baumannii [17] = test: Antibacterial activity against Acinetobacter baumannii CLB21655 incubated for 18 to 20 hrs in presence of 50% human serum by microbroth dilution method; format: functional; details: time 18-20 hrs
Acinetobacter baumannii [18] = test: Antibacterial activity against Acinetobacter baumannii CLB21655 incubated for 18 to 20 hrs in presence of 50% mouse serum by microbroth dilution method; format: functional; details: time 18-20 hrs

MIC95 (Acinetobacter baumannii [1]) [µM] | EC50 [2] [nM] | MIC95 (Acinetobacter baumannii [4]) [µM] | MIC95 (Acinetobacter baumannii [6]) [µM] | SMILES | EC50 at 24 h [3] [µM] | Selectivity ratio (Acinetobacter baumannii [5]) | Selectivity ratio (Acinetobacter baumannii [10]) | also measured
0.024 (≈ 0.0192 µg/mL) | 5.7 | 3.12 |  | O=C(O)c1cc(CN2CC(Oc3ccc(NS(=O)(=O)c4ccc(-c5ccc(F)cc5)s4)c(C(=O)O)c3)C2)ccc1NS(=O)(=O)CCc1ccc(Cl)cc1 | 38.7 | 130 |  | 
0.391 (≈ 0.368 µg/mL) | < 10 |  | 3.12 | O=C(CCCOc1ccc(NS(=O)(=O)c2ccc(-c3ccc(C(F)(F)F)cc3)cc2)c(C(=O)O)c1)Nc1ccc(NS(=O)(=O)c2ccc(-c3ccc(C(F)(F)F)cc3)cc2)c(C(=O)O)c1 | 11.2 |  | 8 | AUC(0-inf) [7]: 885 µM·h; Cmax [8]: 543 µM; AUC(0-inf) [9]: 3780 µM·h; Cmax [11]: 370 µM
0.024 (≈ 0.0195 µg/mL) | 3.8 |  | 1.11 | Cn1nc(-c2ccccc2)cc1S(=O)(=O)Nc1ccc(NC(=O)CCCOc2ccc(NS(=O)(=O)c3cc(-c4ccccc4)nn3C)c(C(=O)O)c2)cc1C(=O)O | 0.7 |  | 46 | 
0.196 (≈ 0.167 µg/mL) | 581 | 6.25 |  | O=C(O)c1cc(CN2CC(COc3ccc(NS(=O)(=O)c4cnn(-c5ccc(Cl)cc5)c4)c(C(=O)O)c3)C2)ccc1NS(=O)(=O)c1cnn(-c2ccc(Cl)cc2)c1 | > 42 | 32 |  | 
3.12 (≈ 2.33 µg/mL) | 1140 |  | 25 | O=C(CCCOc1ccc(NS(=O)(=O)CCc2ccc(F)cc2)c(C(=O)O)c1)Nc1ccc(NS(=O)(=O)CCc2ccc(F)cc2)c(C(=O)O)c1 |  |  | 8 | Activity (MT4): Non-Toxic
0.049 (≈ 0.0418 µg/mL) | 82 | 6.25 |  | C[C@@H]1[C@H](Oc2ccc(NS(=O)(=O)c3cnn(-c4ccc(Cl)cc4)c3)c(C(=O)O)c2)CN1Cc1ccc(NS(=O)(=O)c2cnn(-c3ccc(Cl)cc3)c2)c(C(=O)O)c1 (racemic) | > 42 | 128 |  | 
0.057 (≈ 0.0444 µg/mL) | 49 |  | 11.5 | CCCCc1ccc(S(=O)(=O)Nc2ccc(NC(=O)CCC(=O)Nc3ccc(NS(=O)(=O)c4ccc(CCCC)cc4)c(C(=O)O)c3)cc2C(=O)O)cc1 | > 42 |  | 202 | fraction unbound [12]: < 0.001; Activity (Acinetobacter baumannii [13]): 6.04 log10CFU/g; logD [14]: 2.1
0.062 (≈ 0.053 µg/mL) | < 10 |  | 1.56 | O=C(CCCOc1ccc(NS(=O)(=O)c2cnn(-c3ccc(Cl)cc3)c2)c(C(=O)O)c1)Nc1ccc(NS(=O)(=O)c2cnn(-c3ccc(Cl)cc3)c2)c(C(=O)O)c1 | 22.9 |  | 25 | 
 |  |  |  | O=C(O)c1cc(CN2CC(Oc3ccc(NS(=O)(=O)c4cnn(-c5ccc(F)cc5)c4)c(C(=O)O)c3)C2)ccc1NS(=O)(=O)CCCCCc1ccc(Cl)cc1 |  |  |  | MIC (Acinetobacter baumannii [15]): 0.024 µM (≈ 0.0198 µg/mL); MIC (Acinetobacter baumannii [16]): 3.12 µM; MIC (Acinetobacter baumannii [17]): 25 µM; MIC (Acinetobacter baumannii [18]): 25 µM
 |  |  |  | O=C(O)c1cc(CN2CC(Oc3ccc(NS(=O)(=O)c4cnn(-c5ccc(F)cc5)c4)c(C(=O)O)c3)C2)ccc1NS(=O)(=O)CCCCc1ccc(Cl)cc1 |  |  |  | MIC (Acinetobacter baumannii [15]): 0.078 µM (≈ 0.0634 µg/mL); MIC (Acinetobacter baumannii [16]): 3.12 µM; MIC (Acinetobacter baumannii [17]): 29.7 µM; MIC (Acinetobacter baumannii [18]): 70.7 µM
0.391 (≈ 0.333 µg/mL) | 887 | 3.12 |  | O=C(O)c1cc(CNC2CN(Cc3ccc(NS(=O)(=O)c4cnn(-c5ccc(Cl)cc5)c4)c(C(=O)O)c3)C2)ccc1NS(=O)(=O)c1cnn(-c2ccc(Cl)cc2)c1 | > 42 | 8 |  | 
0.024 (≈ 0.0208 µg/mL) | 2380 |  | 0.098 | O=C(O)c1cc(CN[C@H]2C[C@@H](CNc3ccc(NS(=O)(=O)c4cnn(-c5ccc(Cl)cc5)c4)c(C(=O)O)c3)C2)ccc1NS(=O)(=O)c1cnn(-c2ccc(Cl)cc2)c1 | 32.7 |  |  | Activity (Acinetobacter baumannii [4]): inactive
0.098 (≈ 0.0865 µg/mL) | < 10 |  | 1.56 | Cc1c(S(=O)(=O)Nc2ccc(NC(=O)CCCOc3ccc(NS(=O)(=O)c4cnn(-c5ccc(Cl)cc5)c4C)c(C(=O)O)c3)cc2C(=O)O)cnn1-c1ccc(Cl)cc1 | 0.9 |  | 16 | 
0.012 (≈ 0.0109 µg/mL) | 29 |  | 3.12 | O=C(CCCOc1ccc(NS(=O)(=O)c2ccc(Oc3ccc(Cl)cc3)nc2)c(C(=O)O)c1)Nc1ccc(NS(=O)(=O)c2ccc(Oc3ccc(Cl)cc3)nc2)c(C(=O)O)c1 | 36.3 |  | 260 | 
0.049 (≈ 0.04 µg/mL) | 17 | 3.12 |  | O=C(O)c1cc(CN2CC(Oc3ccc(NS(=O)(=O)c4ccc(-c5ccc(F)cc5)cc4)c(C(=O)O)c3)C2)ccc1NS(=O)(=O)c1cnn(-c2ccc(F)cc2)c1 | > 42 | 64 |  | 
